Data published in patent US8071611B2, “Spirocyclic heterocyclic derivatives and methods of their use” (Adolor Corporation, priority 2003, dated 2011).
Where a name gives a salt, the structure may show the parent alone. Read-outs that look alike come from different tables or passages of the source.

How the values were obtained:
[1] = biological target: T1, cloned human μ opioid receptor (Homo sapiens, UniProt P35372); test: Receptor binding: inhibition of [3H]diprenorphine binding to cloned human μ opioid receptor; conditions: for % Inhibition at 10 μM (μ): [3H]diprenorphine binding, cloned human μ opioid receptor; for inhibition at 10 µM: read-out: % Inhibition at 10 μM (μ)
T1 construct: expressed in transfected cells; host or cells: CHO cells (membranes)
Protocol: (§1) IC50 values were obtained by nonlinear analysis of the data using GraphPad Prism version 3.00 for Windows (GraphPad Software, San Diego). Ki values were obtained by Cheng-Prusoff corrections of IC50 values.
(§2) After dilution in buffer A and homogenization as before, membrane proteins (10-80 μg) in 250 μL were added to mixtures containing test compound and [^3H]diprenorphine (0.5 to 1.0 nM, 40,000 to 50,000 dpm) in 250 μL of buffer A in 96-well deep-well polystyrene titer plates (Beckman). After incubation at room temperature for one hour, the samples were filtered through GF/B filters that had been presoaked in a solution of 0.5% (w/v) polyethylenimine and 0.1% (w/v) bovine serum albumin in water. The filters were rinsed 4 times with 1 mL of cold 50 mM Tris HCl, pH 7.8 and radioactivity remaining on the filters determined by scintillation spectroscopy. Nonspecific binding was determined by the minimum values of the titration curves and was confirmed by separate assay wells containing 10 μM naloxone.
(§3) To determine the equilibrium dissociation constant for the inhibitors (Ki), radioligand bound (cpm) in the presence of various concentrations of test compounds was measured. The concentration to give half-maximal inhibition (EC50) of radioligand binding was determined from a best nonlinear regression fit to the following equation,
(§4) The nonlinear regression fit was performed using the program Prism® (GraphPad Software, San Diego, Calif.). The Ki values were then determined from the EC50 values by the following equation,
(§5) [formula] where [ligand] is the concentration of radioligand and Kd is the equilibrium dissociation constant for the radioligand.
as §1
(§6) [formula] where [ligand] is the concentration of radioligand and Kd is the equilibrium dissociation constant for the radioligand. Receptor-Mediated [^35S]GTP[…]S Binding

[2] = biological target: T2, cloned human κ opioid receptor (Homo sapiens, UniProt P41145); test: Receptor binding: inhibition of [3H]diprenorphine binding to cloned human κ opioid receptor; conditions: for inhibition at 10 µM: read-out: % Inhibition at 10 μM (κ); for % Inhibition at 10 μM (κ): [3H]diprenorphine binding
T2 construct: expressed in transfected cells; host or cells: CHO cells (membranes)
Protocol: as §1, §2, §3, §4, §5, §1, §6

[3] = system: forced swim behaviour in rats; test: Forced swim assay; assay type: in vivo, Male Sprague-Dawley rats; conditions: percent change ±SEM relative to vehicle-treated rats
Source text: Male Sprague-Dawley rats (approximately 200 g) are placed in a tank of room temperature water for a fifteen min practice swim. Every five sec during the first five min of the practice swim, the rats are rated as immobile (floating with motion needed to keep head above the water), swimming (movement across the swim), or climbing (actively trying to climb out of the tank of water, upward directed movements of the forepaws). The percentage of time the rats spent in each of these responses is calculated.
Approximately 24 h after the practice swim, the rats are treated with vehicle or test compound and placed in the tank for a 5 min swim. As was the case with the practice swim, the rats are rated as immobile, swimming, or climbing during the test swim and the percentage of time spent in each of these responses is calculated. The data is analyzed by one-way ANOVA with post-hoc analysis to compare the behavioral response after vehicle treatment to the behavioral response after drug treatment for each of the three behavioral responses. The level of significance is set at p<0.05.

[4] = system: FCA-induced hyperalgesia in rats; test: Freunds Complete Adjuvant (FCA)-induced hyperalgesia, paw pressure thresholds; assay type: in vivo
Protocol: Rats were injected intraplantar with FCA and 24 h later treated with tested compounds administered orally. Paw Pressure Thresholds (PPT) was assessed 30, 60, 120, and 240 minutes after drug treatment.

[5] = system: acetic acid-induced writhing in mice; test: Acetic acid-induced writhing; assay type: in vivo, Male ICR mice; conditions: 30 mg/kg (s.c.)
Protocol: Male ICR mice weighing 20-25 g are injected s.c. with either vehicle or test compound 15 min before they are injected intraperitoneally with 0.6% acetic acid. […] treatment with acetic acid, the number of writhes is counted for 10 minutes. Dose response curves are expressed as the percent inhibition of acetic acid induced writhing, when compared to the mean number of writhes observed in the vehicle-treated mice. The mean percent inhibition (% I) of acetic acid-induced writhing for drug-treated mice is calculated according to the following formula: […]
The mean individual response is the mean number of writhes in mice treated with test compound. The mean vehicle response is the mean number of writhes in mice treated with vehicle.
Male ICR mice weighing 20-25 g are injected s.c. with either vehicle or test compound 15 minutes before they are injected intraperitoneally with 0.6% acetic acid. At 5 minutes after treatment with acetic acid, the number of writhes is counted for 10 minutes. Dose response curves are expressed as the percent inhibition of acetic acid induced writhing, when compared to the mean number of writhes observed in the vehicle-treated mice. The mean percent inhibition (% I) of acetic acid-induced writhing for drug-treated mice is calculated according to the following formula:
[formula] […]

[6] = system: castor oil-induced diarrhea in mice; test: Castor oil-induced diarrhea; assay type: in vivo; conditions: Mus musculus, sc, read-out: ED50 (incidence of castor oil-induced diarrhea)
Protocol: Mice were fasted overnight with water ad libitum. Mice were weighed, dosed orally with 0.6 mL of castor oil and placed in individual cubicles (11 cm×10 cm) lined with a pre-weighed sheet of absorbent paper. Thirty min after receiving castor oil, mice were injected s.c with tested compound. Seventy-five min after dosing with castor oil, the mice and absorbent paper were reweighed and the number of mice with diarrhea (defined as wet, unformed stool) was determined.
Percent inhibition by tested compounds in castor oil-induced diarrhea assay was determined by the following formula: […]

[7] = biological target: T3, cloned human δ opioid receptor (Homo sapiens, UniProt P41143); test: Receptor binding: inhibition of [3H]diprenorphine binding to cloned human δ opioid receptor
T3 construct: expressed in transfected cells; host or cells: CHO cells (membranes)
Protocol: as §1, §2, §3, §4, §5, §1, §6

[8] = biological target: T3, cloned human δ opioid receptor; test: Receptor-mediated [35S]GTPγS binding, membranes containing cloned human δ opioid receptors; assay type: biochemical; conditions: agonist stimulation of [35S]GTPγS binding
Protocol: (§7) Assays are carried out in 96-well FlashPlates® (Perkin Elmer Life Sciences, Inc, Boston, Mass.). Membranes prepared from CHO cells expressing the appropriate receptor (50-100 μg of protein) are added to assay mixtures containing agonist with or without antagonists, 100 μM [^35S]GTPγS (approx. 100,000 dpm), 3.0 μM GDP, 75 mM NaCl, 15 mM MgCl2, 1.0 mM ethylene glycol-bis(β-aminoethyl ether)-N,N,N′,N′-tetracetic acid, 1.1 mM dithiothreitol, 10 μg/mL leupeptin, 10 μg/mL pepstatin A, 200 μg/mL bacitracin, and 0.5 μg/mL aprotinin in 50 mM Tris-HCl buffer, pH 7.8. After incubation at room temperature for one hour, the plates are sealed, centrifuged at 800×g in a swinging bucket rotor for 5 min and bound radioactivity determined with a TopCount microplate scintillation counter (Packard Instrument Co., Meriden, Conn.).
as §7, with “pM [^35S]GTP[…]S” for “μM [^35S]GTPγS”

[9] = [3H]diprenorphine displacement, cloned human δ opioid receptor, read-out: Ki(δ)

T1 sequence (P35372 whole entry): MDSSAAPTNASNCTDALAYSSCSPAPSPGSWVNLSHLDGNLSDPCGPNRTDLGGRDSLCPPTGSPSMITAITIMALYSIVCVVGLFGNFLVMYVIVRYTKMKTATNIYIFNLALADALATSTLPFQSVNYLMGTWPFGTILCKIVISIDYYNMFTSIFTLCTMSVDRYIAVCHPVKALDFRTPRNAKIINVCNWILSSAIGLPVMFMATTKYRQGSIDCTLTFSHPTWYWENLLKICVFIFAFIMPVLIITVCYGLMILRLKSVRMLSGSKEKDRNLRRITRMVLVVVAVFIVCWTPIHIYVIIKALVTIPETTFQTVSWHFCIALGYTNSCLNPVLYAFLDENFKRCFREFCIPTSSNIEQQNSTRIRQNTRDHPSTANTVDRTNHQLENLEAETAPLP
T2 sequence (P41145 whole entry): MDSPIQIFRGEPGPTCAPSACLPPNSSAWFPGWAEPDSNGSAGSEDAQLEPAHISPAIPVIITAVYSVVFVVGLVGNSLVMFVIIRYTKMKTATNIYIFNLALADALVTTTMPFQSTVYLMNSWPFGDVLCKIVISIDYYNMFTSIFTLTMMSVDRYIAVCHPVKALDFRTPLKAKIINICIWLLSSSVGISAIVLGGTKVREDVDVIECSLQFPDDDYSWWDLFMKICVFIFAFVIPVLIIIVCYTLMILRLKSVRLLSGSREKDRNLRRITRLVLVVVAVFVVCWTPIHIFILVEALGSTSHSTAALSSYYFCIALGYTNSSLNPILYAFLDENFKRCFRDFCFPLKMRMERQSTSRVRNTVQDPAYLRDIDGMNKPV
T3 sequence (P41143 whole entry): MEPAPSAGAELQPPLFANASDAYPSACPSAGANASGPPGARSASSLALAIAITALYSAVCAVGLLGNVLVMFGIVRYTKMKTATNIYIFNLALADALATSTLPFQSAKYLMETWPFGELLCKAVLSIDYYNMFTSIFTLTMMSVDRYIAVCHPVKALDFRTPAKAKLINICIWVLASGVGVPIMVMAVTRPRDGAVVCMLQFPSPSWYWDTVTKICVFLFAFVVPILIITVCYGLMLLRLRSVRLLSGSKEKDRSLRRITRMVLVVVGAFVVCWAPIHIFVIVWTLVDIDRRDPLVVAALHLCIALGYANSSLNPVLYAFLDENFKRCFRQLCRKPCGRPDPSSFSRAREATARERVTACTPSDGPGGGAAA

With CCN(CC)C(=O)c1ccc(C2=CC3(CCNCC3)Oc3ccccc32)cc1 [Example 1A] the Ki [1] was 980 nM, the Ki [2] was over 1000 nM and the “IMMOBILITY (% Decrease)” value ([3]; 3 mg/kg p.o.) was 17 ± 10%. The “SWIMMING (% Increase)” value ([3]; 3 mg/kg p.o.) was 37 ± 17%, the “IMMOBILITY (% Decrease)” value ([3]; 30 mg/kg p.o.) was 43 ± 13 % and the “SWIMMING (% Increase)” value ([3]; 30 mg/kg p.o.) was 137 ± 35 %.
CCN(CC)C(=O)c1ccc(C2=CC3(CCNCC3)Oc3ccccc32)cc1 [Example Z1, 4-[(4-N,N-diethylaminocarbonyl)phenyl]-spiro[2H,1-benzopyran-2,4′-piperidine]hydrochloride] was tested, and the inhibition at 10 µM [2] was 32%, the ED50 ([4]; Rattus norvegicus, po) was 2.5 mg/kg and the “increase of Paw Pressure Thresholds (PPT) in the inflamed paw” value ([4]; inflamed paw, 1-2 h after oral administration) was 170-180%. For the same compound, the “inhibition of acetic acid-induced writhing” value [5] was 69% and the ED50 [6] was 8.7 mg/kg.
CCN(CC)C(=O)c1ccc(C2=CC3(CCNCC3)Oc3ccc(F)cc32)cc1 [Example Z2, 4-[(4-N,N-diethylaminocarbonyl)phenyl]-6-fluoro-spiro[2H,1-benzopyran-2,4′-piperidine]hydrochloride] was tested, and the Ki [7] was 2.6 nM, the Ki [1] was 4500 nM and the inhibition at 10 µM [2] was 17%. It also gave an EC50 [8] of 70 nM.
With CCN(CC)C(=O)c1ccc(C2=CC3(CCNCC3)Oc3ccc(O)cc32)cc1.Cl [Example Z3, 4-[(4-N,N-diethylaminocarbonyl)phenyl]-6-hydroxyspiro[2H,1-benzopyran-2,4′-piperidine]hydrochloride] the Ki [7, 9] was 0.36 nM, the “% Inhibition at 10 μM (μ)” value [1] was 50% and the Ki ([2]; [3H]diprenorphine displacement, cloned human κ opioid receptor, read-out: Ki(κ)) was 790 nM. For the same compound, the EC50 [8] was 1.4 nM.
For CCN(CC)C(=O)c1ccc(C2CC3(CCNCC3)Oc3ccccc32)cc1.Cl (centres unmarked) [Example Z4, 4-[(4-N,N-diethylaminocarbonyl)phenyl]-3,4-dihydrospiro[2H,1-benzopyran-2,4′-piperidine]hydrochloride], the “% Inhibition at 10 μM (μ)” value [1] was 34% and the “% Inhibition at 10 μM (κ)” value ([2]; cloned human κ opioid receptor) was 19%.
CCN(CC)C(=O)c1ccc(C2=CC3(CCN(C)CC3)Oc3ccccc32)cc1 [Example Z5, 4-[(4-N,N-diethylaminocarbonyl)phenyl]-N-methyl-spiro[2H,1-benzopyran-2,4′-piperidine]hydrochloride] was tested, and the Ki [7] was 5.8 nM, the inhibition at 10 µM [1] was 17% and the inhibition at 10 µM [2] was 23%. For the same compound, the EC50 [8] was 140 nM.
In the case of CCCN(CC1CC1)C(=O)c1ccc(C2=CC3(CCNCC3)Oc3ccccc32)cc1 [Example Z7, 4-[(4-N-propyl-N-cyclopropylmethylaminocarbonyl)phenyl]-spiro[2H,1-benzopyran-2,4′-piperidine]hydrochloride], the Ki [7] is reported as 1.7 nM, the Ki [1] is reported as 2500 nM and the inhibition at 10 µM [2] is reported as 51%. It also gave an EC50 [8] of 29 nM.
For O=C(O)C1CCN(C(=O)c2ccc(C3=CC4(CCNCC4)Oc4ccccc43)cc2)CC1 [Example Z9, 4-[4-(4-carboxypiperidineaminocarbonyl)phenyl]-spiro[2H,1-benzopyran-2,4′-piperidine]hydrochloride], the Ki [7] was 15 nM, the inhibition at 10 µM [1] was 17% and the inhibition at 10 µM [2] was 24%. It also gave an EC50 [8] of 160 nM.
In the case of C1=C(c2ccc(-c3nn[nH]n3)cc2)c2ccccc2OC12CCNCC2.O=C(O)C(F)(F)F [Example Z10, 4-[4-(2H-tetrazolyl)phenyl]-spiro[2H,1-benzopyran-2,4′-piperidine]trifluoroacetic acid salt], the Ki [7, 9] is reported as 2.7 nM, the “% Inhibition at 10 μM (μ)” value [1] is reported as 29% and the “% Inhibition at 10 μM (κ)” value ([2]; cloned human κ opioid receptor) is reported as 1.3%. It also gave an EC50 [8] of 22 nM.
With O=C(O)CCCn1nnc(-c2ccc(C3=CC4(CCNCC4)Oc4ccccc43)cc2)n1 [Example Z11, 4-[4-(4-carboxypropyl-tetrazol-2-yl)phenyl]-spiro[2H,1-benzopyran-2,4′-piperidine]] the Ki [7] was 8 nM, the inhibition at 10 µM [1] was 3.7% and the inhibition at 10 µM [2] was -3.3%. The EC50 [8] was 140 nM.
C1=C(c2cccnc2)c2ccccc2OC12CCNCC2 [Example Z12, 4-(3-pyridyl)-spiro[2H,1-benzopyran-2,4′-piperidine]hydrochloride] gave a Ki [7] of 54 nM, an inhibition at 10 µM [1] of 36% and an inhibition at 10 µM [2] of 44%.
For CS(=O)(=O)c1ccc(C2=CC3(CCNCC3)Oc3ccccc32)cc1 [Example Z13, 4-[4-(methanesulfonyl)-phenyl]-spiro[2H,1-benzopyran-2,4′-piperidine]hydrochloride], the Ki [7] was 28 nM, the inhibition at 10 µM [1] was 41% and the inhibition at 10 µM [2] was 17%.
In the case of CCN(CC)C(=O)c1ccc(C2=CC3(CC4CCC(C3)N4)Oc3ccccc32)cc1 (centres unmarked) [Example Z14, 4-[(4-N,N-diethylaminocarbonyl)phenyl]spiro[2H,1-benzopyran-2,4′-nortropine]hydrochloride], the Ki [7] is reported as 26 nM, the inhibition at 10 µM [1] is reported as 24% and the inhibition at 10 µM [2] is reported as 8%.
